Reference: patent publication US6759385B1, “Methods to treat undesirable immune responses” (Regents of the University of Minnesota, priority 1997, dated 2004)

Tests used:
[1] = test system: anti-TAChR and anti-peptide IgG subclasses; experiment: ELISA of anti-TAChR and anti-peptide IgG subclasses (Example III); assay type: in vivo, mouse; conditions: IL-4 KO mice, nasal α epitope pool
Experimental: Assay of Anti-TAChR and Anti-peptide IgG Subclasses. The relative concentration of IgG subclasses of anti-TAChR and anti-peptide antibodies in the sera of peptide- and sham-treated mice was measured by ELISA after immunization with TAChR. Pooled sera from three-four mice that had received identical treatments was used. The sera used in this assay was obtained at the end of the observation period (10 weeks after beginning of the anti-TAChR immunization).
Ninety-six well plates (Nunc, Karstrup, Denmark) were washed extensively and incubated as follows: 4 hours with a 10 μg/ml solution of TAChR or of individual peptides Tα150-169, Tα181-200 and Tα360-378 in 0.1 M Na phosphate buffer, pH 9.5 (two wells for each antigen), 1 hr with PBS plus 3% bovine serum albumin (BSA), 2 hours with mouse serum (serial dilutions from 1:100 to 1:40,000 in PBS plus 3% BSA), 1 hr with a dilution 1:1000 in PBS plus 3% BSA of goat antibody specific for the total IgG, or IgGl, or IgG2a, or IgG2b or IgG3 (Mouse Monoclonal Isotyping Kit, Sigma, St. Louis, Mo.), and 30 minutes with a 1:3000 dilution of peroxidase-conjugate rabbit anti-goat IgG (Sigma) in PBS plus 3% BSA. The plates were washed, and developed them for 20-60 minutes with ABTS peroxidase substrate system (Kirkegaard & Perry Laboratories Inc., Gaithersburg, Md.). […] The OD was read at 405 nanometers. […]

[2] = test system: EMG in B6 mice immunized with TAChR; experiment: Nasal tolerization, EMG symptoms by pancuronium-sensitized inverted hang test (Example I); assay type: in vivo, mouse
Experimental: Mice and Induction of Tolerance. B6 mice were purchased from Jackson Laboratory (Bar Harbor, Me.) and housed at the animal facility of the University of Minnesota. After light anesthesia by i.m. injection of Ketaset (100 mg/kg; Alveco Co., Inc., Fort Dodge, Iowa), the mice received into both nostrils a total of 25 μl of PBS containing 50 μg of peptide Tα150-169, either alone or pooled with equimolar amounts of peptides Tα180-200 and Tα360-378 (referred to as “peptide pool” or “αpool” ). The dose was based on the results of an experiment in which increasing amounts of peptide α150-169 were used (50 μg, 100 μg, 200 μg, 400 μg and 800 μg). […] The tolerogen was administered as a solution instilled into the nostrils, a method of delivery which allowed accurate administration of a defined amount of solution.
In protocol A, peptides or peptide-free PBS were administered two weeks before the first TAChR immunization, and then three more times, on the same day as the three immunizations with TAChR (at one month intervals, see below). In protocol B, peptides or peptide-free PBS were administered weekly, starting two weeks before beginning of the immunization with TAChR, for a total of 14 treatments (two before and 12 during TAChR immunization).
Immunization. Eight-ten week old mice were immunized by subcutaneous injections, along the back and at the base of the tail, with solubilized TAChR (50 μg), peptide Tα150-169 (100 μg), or the peptide pool (100 μg of each peptide). The mice were boosted twice at 4 week intervals with the same amouni of antigen. The antigen solutions (in 100 μl PBS) were emulsified with an equal volume of complete Freund's adjuvant (FA) for the first injection, and with incomplete FA for the boosts. Control mice were injected with PBS emulsified in the appropriate adjuvant.
Evaluation of the Clinical Symptoms of EMG. EMG symptoms were quantified by a forced exercise using the inverted hang technique, sensitized by administration of a minute amount of pancuronium bromide (0-03 mg/kg i.p.) just prior to the beginning of the test (Karachunski et al., 1995). The mice hang from a grid, and the time it takes for the mouse to release its hold and fall three times (“holding time”) was measured. The test was performed on the day of the first nasal administration, on the day before each immunization, and 7-14 days after the third immunization, just before sacrificing the animal. This test is parametric, and gives a quantitative assessment of the severity of the weakness.
The holding time of normal mice was 10.4±2.1 minutes (n=99). […]

Substance: peptide Tα150-169: synthetic peptide corresponding to residues 150-169 of the TAChR α subunit (TYDGTKVSISPESDRPDLST; UniProt P02710 174-193, looked up, fragment)
- anti-peptide IgG2a [1]: moderate synthesis of IgG2a
- mice that developed EMG ([2]; nasal protocol A (monthly), TAChR-immunized B6 mice): 42%
- mice with detectable weakness ([2]; nasal protocol B (weekly), TAChR-immunized B6 mice): none
- protection from EMG, dose finding ([2]; nasal, lowest dose 50 μg of 50-800 μg): satisfactory level of protection
- holding time compared with sham-tolerized mice ([2]; nasal, protocols A and B): significantly longer holding times
